What was measured:
Test in all cases: Bliss excess, mean over the matrix (fraction); higher = more synergy
[1] = system: Hs-633T (Other Solid Carcinomas)
Summary of the method: (§1)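 Cell lines in DMEM/F12 or RPMI with 10% FBS were plated in 1536-well plates, held 24 hours at 37°C, 5% CO2, then given two-drug dose matrices for 72 hours (DMSO typically 0.2%). Viability was read by CellTiter-Glo 2.0 luminescence and scaled as inhibition from 0 (vehicle wells) to 1 (blank wells). Combination Emax is the second-highest inhibition in the matrix; Bliss excess is observed combination effect minus expected EA + EB − EA·EB, EA and EB being single-agent effects.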

[2] = system: OC-314 (Ovarian Carcinoma)
Summary of the method: as §1

[3] = system: CAL-54 (Kidney Carcinoma)
Summary of the method: as §1

HMV-II (Melanoma) = system: HMV-II (Melanoma)
Summary of the method: as §1

NCI-H2795 (Mesothelioma) = system: NCI-H2795 (Mesothelioma)
Summary of the method: as §1

[4] = system: MDA-MB-468 (Breast Carcinoma)
Summary of the method: as §1

[5] = system: SW1116 (Colorectal Carcinoma)
Summary of the method: as §1

[6] = system: SU-DHL-6 (B-Cell Non-Hodgkin's Lymphoma)
Summary of the method: as §1

[7] = system: 8305C (Thyroid Gland Carcinoma)
Summary of the method: as §1

NCI-H2461 (Mesothelioma) = system: NCI-H2461 (Mesothelioma)
Summary of the method: as §1

SH-4 (Melanoma) = system: SH-4 (Melanoma)
Summary of the method: as §1

Mewo (Melanoma) = system: Mewo (Melanoma)
Summary of the method: as §1

[8] = system: NCI-H69 (Small Cell Lung Carcinoma)
Summary of the method: as §1

[9] = system: HO-1-u-1 (Oral Cavity Carcinoma)
Summary of the method: as §1

[10] = system: LoVo (Colorectal Carcinoma)
Summary of the method: as §1

[11] = system: LU-139 (Small Cell Lung Carcinoma)
Summary of the method: as §1

[12] = system: RT-112 (Bladder Carcinoma)
Summary of the method: as §1

[13] = system: CAPAN-1 (Pancreatic Carcinoma)
Summary of the method: as §1

[14] = system: RPMI-6666 (Non-Cancerous)
Summary of the method: as §1

NCI-H28 (Mesothelioma) = system: NCI-H28 (Mesothelioma)
Summary of the method: as §1

SMILES | Bliss excess [1] | Bliss excess [2] | Bliss excess [3] | Bliss excess (HMV-II (Melanoma)) | Bliss excess (NCI-H2795 (Mesothelioma)) | Bliss excess [4] | Bliss excess [5] | Bliss excess [6] | Bliss excess [7] | Bliss excess (NCI-H2461 (Mesothelioma)) | Bliss excess (SH-4 (Melanoma)) | Bliss excess (Mewo (Melanoma)) | Bliss excess [8] | Bliss excess [9] | Bliss excess [10] | Bliss excess [11] | Bliss excess [12] | Bliss excess [13] | Bliss excess [14] | Bliss excess (NCI-H28 (Mesothelioma))
C[C@@H](Oc1cc(-c2cnn(C3CCNCC3)c2)cnc1N)c1c(Cl)ccc(F)c1Cl [Crizotinib] + CC1=C(C(=CC=C1)Cl)NC(=O)C2=CN=C(S2)NC3=CC(=NC(=N3)C)N4CCN(CC4)CCO [Dasatinib] (first compound max 10 µM, 7x7, partner max 2 µM) | 0.0646 | 0.032 | -0.033 | -0.104 | 0.0277 | 0.0256 | 0.0159 | -0.0146 | 0.0122 | -0.0186 | -0.0674 | -0.0156 | 0.0403 | -0.0488 | -0.121 | -0.0489 | 0.0179 | -0.0481 | 0.0471 | 0.0073
C[C@@H](Oc1cc(-c2cnn(C3CCNCC3)c2)cnc1N)c1c(Cl)ccc(F)c1Cl [Crizotinib] + Cn1cnc2c(F)c(Nc3ccc(Br)cc3Cl)c(C(=O)NOCCO)cc21 [Selumetinib] (first compound max 10 µM, 7x7, partner max 10 µM) | 0.0381 | -0.0354 | -0.0135 | -0.0273 | -0.0974 | -0.0996 | -0.0239 | -0.0205 | 0.0017 | -0.0376 | -0.0768 | -0.0431 | -0.0607 | -0.0779 | -0.0546 | -0.0615 | -0.043 | -0.046 | -0.0622 | -0.0004
O=C(c1cc(Cc2n[nH]c(=O)c3ccccc23)ccc1F)N1CCN(C(=O)C2CC2)CC1 [Olaparib] + CC1(C)CCC(CN2CCN(c3ccc(C(=O)NS(=O)(=O)c4ccc(NCC5CCOCC5)c([N+](=O)[O-])c4)c(Oc4cnc5[nH]ccc5c4)c3)CC2)=C(c2ccc(Cl)cc2)C1 [Venetoclax] (first compound max 10 µM, 7x7, partner max 1 µM) | -0.0018 | -0.0124 | -0.0496 | -0.0468 | -0.0329 | -0.0372 | -0.0429 | 0.104 | -0.0213 | -0.0373 | -0.0355 | -0.0766 | 0.158 | -0.0275 | -0.038 | 0.0408 | -0.0275 | -0.0564 | 0.134 | -0.0273
O=C(c1cc(Cc2n[nH]c(=O)c3ccccc23)ccc1F)N1CCN(C(=O)C2CC2)CC1 [Olaparib] + CN(CC[C@H](CSC1=CC=CC=C1)NC2=C(C=C(C=C2)S(=O)(=O)NC(=O)C3=CC=C(C=C3)N4CCC(CC4)[C@H](C5=CC=CC=C5C6=CC=C(C=C6)Cl)O)S(=O)(=O)C(F)(F)F)CCO [AZD4320] (first compound max 10 µM, 7x7, partner max 1 µM) | 0.0017 | -0.0165 | -0.0021 | -0.0537 | -0.0086 | -0.043 | -0.0404 | 0.0091 | -0.0062 | -0.0534 | -0.0505 | -0.0615 | 0.0294 | 0.0123 | -0.0225 | 0.0154 | -0.0305 | -0.0347 | 0.0694 | -0.0353
O=C(c1cc(Cc2n[nH]c(=O)c3ccccc23)ccc1F)N1CCN(C(=O)C2CC2)CC1 [Olaparib] + COc1nnc2ccc(N3CCC(c4ccc(OCCN5CCN(C)C(=O)[C@H]5C)cc4)CC3)nn12 [AZD5153] (first compound max 10 µM, 7x7, partner max 1 µM) | 0.0223 | -0.0341 | -0.0923 | -0.046 | -0.085 | -0.0737 | -0.0745 | -0.0338 | -0.0634 | -0.118 | -0.11 | -0.074 | 0.0144 | -0.0022 | -0.0338 | -0.0194 | -0.0332 | -0.0573 | -0.0487 | -0.0529
O=C(c1cc(Cc2n[nH]c(=O)c3ccccc23)ccc1F)N1CCN(C(=O)C2CC2)CC1 [Olaparib] + Cc1c2c(nn1C)CSCc1cc(n(C)n1)CSc1cc(c3ccccc3c1)OCCCc1c(C(=O)O)n(C)c3c-2c(Cl)ccc13 [AZD5991] (first compound max 10 µM, 7x7, partner max 1 µM) | -0.0037 | -0.0142 | -0.0272 | -0.0561 | -0.0207 | -0.0391 | -0.0503 | 0.0065 | -0.0391 | -0.0502 | -0.0412 | -0.0652 | 0.0008 | -0.0224 | -0.0591 | -0.0263 | 0.0048 | -0.0392 | 0.017 | -0.0349
N#Cc1cnc(Nc2cc(NC[C@H]3CNCCO3)c(C(F)(F)F)cn2)cn1 [SRA737] + C=CCn1c(=O)c2cnc(Nc3ccc(N4CCN(C)CC4)cc3)nc2n1-c1cccc(C(C)(C)O)n1 [AZD1775] (first compound max 10 µM, partner max 1 µM) | 0.0888 | 0.165 | 0.0005 | 0.0015 | 0.0401 | 0.0705 | -0.0119 | 0.131 | 0.0356 | 0.0428 | 0.0688 | -0.0149 | 0.0231 | 0.0809 | 0.0837 | -0.0015 | 0.107 | -0.0663 | -0.0021 | 0.0829
N#Cc1cnc(Nc2cc(NC[C@H]3CNCCO3)c(C(F)(F)F)cn2)cn1 [SRA737] + CCc1c2c(nc3ccc(O)cc13)-c1cc3c(c(=O)n1C2)COC(=O)[C@]3(O)CC [SN-38] (first compound max 10 µM, 7x7, partner max 0.3 µM) | -0.0402 | -0.0056 | -0.0693 | -0.0523 | -0.0977 | -0.0136 | 0.0312 | 0.0295 | -0.0419 | -0.0351 | -0.111 | 0.022 | 0.0781 | 0.106 | -0.0227 | -0.0305 | 0.138 | -0.0974 | -0.0707 | -0.104
N#Cc1cnc(Nc2cc(NC[C@H]3CNCCO3)c(C(F)(F)F)cn2)cn1 [SRA737] + Nc1ccn([C@@H]2O[C@H](CO)[C@@H](O)C2(F)F)c(=O)n1 [Gemcitabine] (first compound max 10 µM, 7x7, partner max 0.3 µM) | 0.0301 | 0.108 | -0.0458 | -0.0122 | -0.0258 | 0.0293 | 0.0727 | 0.101 | -0.0158 | -0.0309 | 0.0138 | -0.0047 | -0.0077 | 0.0492 | -0.0137 | 0.0091 | 0.178 | -0.0582 | -0.0487 | 0.0118
N#Cc1cnc(Nc2cc(NC[C@H]3CNCCO3)c(C(F)(F)F)cn2)cn1 [SRA737] + O=c1[nH]cc(F)c(=O)[nH]1 [5-Fluorouracil] (first compound max 10 µM, 7x7, partner max 20 µM) | -0.0246 | 0.114 | -0.0373 | -0.0542 | 0.0744 | -0.0199 | -0.033 | 0.0498 | -0.0326 | -0.0256 | -0.0344 | -0.0136 | -0.0461 | -0.0774 | 0.0238 | 0.0169 | 0.0881 | 0.0479 | -0.003 | -0.0043
CC1(C)CCC(CN2CCN(c3ccc(C(=O)NS(=O)(=O)c4ccc(NCC5CCOCC5)c([N+](=O)[O-])c4)c(Oc4cnc5[nH]ccc5c4)c3)CC2)=C(c2ccc(Cl)cc2)C1 [Venetoclax] + CS(=O)(=O)CCNCc1ccc(-c2ccc3ncnc(Nc4ccc(OCc5cccc(F)c5)c(Cl)c4)c3c2)o1 [Lapatinib] (first compound max 1 µM, 7x7, partner max 10 µM) | -0.0041 | 0.0051 | -0.0788 | -0.045 | -0.058 | -0.141 | -0.0129 | 0.0481 | -0.0112 | -0.04 | -0.0489 | -0.0949 | 0.0391 | 0.0094 | -0.0768 | -0.0061 | -0.0371 | -0.0262 | 0.0423 | -0.0426

Source: the supplement of paper PMC11061612
